These results are taken from patent US20230072683A1, “PYRIDO-PYRIMIDIN DERIVATIVES AND PHARMACEUTICAL COMPOSITION, FOR USE IN PREVENTING OR TREATING PI3 KINASE RELATED DISEASES, COMPRISING SAME AS ACTIVE INGREDIENT” (BORYUNG PHARMACEUTICAL CO., LTD, priority 2019, published 2023).

Experiment [1] deals with PI3K-δ (PI3K(p1108/p857) (h)) (Homo sapiens, UniProt O00329). Put plainly: Evaluation of inhibitory activity against PI3K-δ (HTRF kinase assay). It is filed as biochemical. To be noted: for inhibition at 0.01 µM: compound concentration 0.01 μM, read-out: EXP_VALUE(% Inhibition) PI3K-δ 0.01 μM; for inhibition at 0.1 µM: compound concentration 0.1 μM, read-out: EXP_VALUE(% Inhibition) PI3K-δ 0.1 μM. The method, boiled down:
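HTRF read-out (665/620 nm ratio ×10000) used Eu-labelled anti-GST, GST-tagged GRP1 PH domain and streptavidin-allophycocyanin after EDTA/PIP3 stop.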
On the technique in general: Time-resolved FRET reads energy transfer from a long-lived donor to a nearby acceptor.

The target in a further experiment is DNA-PK(h) (Homo sapiens, UniProt P78527). Kind of experiment: Evaluation of inhibitory activity against DNA-PK (HTRF kinase assay, GST-cMyc-p53 substrate). Format: biochemical. The note with it: for inhibition at 0.01 µM: compound concentration 0.01 μM, read-out: EXP_VALUE(% Inhibition) DNA-PK(h) 0.01 μM; for inhibition at 0.1 µM: compound concentration 0.1 μM, read-out: EXP_VALUE(% Inhibition) DNA-PK(h) 0.1 μM. In short, it runs like this:
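p53 Ser15 phosphorylation by human DNA-PK was measured by time-resolved FRET ratio (665/620 nm ×10000) using Eu-labelled anti-phospho-Ser15 and d2 anti-GST antibodies. Substrate GST-cMyc-p53 at 50 μM; Mg/ATP-initiated, 30 min at room temperature, EDTA stop.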

Chain of PI3K-δ (PI3K(p1108/p857) (h)) (O00329 whole entry, the tested form may be a part): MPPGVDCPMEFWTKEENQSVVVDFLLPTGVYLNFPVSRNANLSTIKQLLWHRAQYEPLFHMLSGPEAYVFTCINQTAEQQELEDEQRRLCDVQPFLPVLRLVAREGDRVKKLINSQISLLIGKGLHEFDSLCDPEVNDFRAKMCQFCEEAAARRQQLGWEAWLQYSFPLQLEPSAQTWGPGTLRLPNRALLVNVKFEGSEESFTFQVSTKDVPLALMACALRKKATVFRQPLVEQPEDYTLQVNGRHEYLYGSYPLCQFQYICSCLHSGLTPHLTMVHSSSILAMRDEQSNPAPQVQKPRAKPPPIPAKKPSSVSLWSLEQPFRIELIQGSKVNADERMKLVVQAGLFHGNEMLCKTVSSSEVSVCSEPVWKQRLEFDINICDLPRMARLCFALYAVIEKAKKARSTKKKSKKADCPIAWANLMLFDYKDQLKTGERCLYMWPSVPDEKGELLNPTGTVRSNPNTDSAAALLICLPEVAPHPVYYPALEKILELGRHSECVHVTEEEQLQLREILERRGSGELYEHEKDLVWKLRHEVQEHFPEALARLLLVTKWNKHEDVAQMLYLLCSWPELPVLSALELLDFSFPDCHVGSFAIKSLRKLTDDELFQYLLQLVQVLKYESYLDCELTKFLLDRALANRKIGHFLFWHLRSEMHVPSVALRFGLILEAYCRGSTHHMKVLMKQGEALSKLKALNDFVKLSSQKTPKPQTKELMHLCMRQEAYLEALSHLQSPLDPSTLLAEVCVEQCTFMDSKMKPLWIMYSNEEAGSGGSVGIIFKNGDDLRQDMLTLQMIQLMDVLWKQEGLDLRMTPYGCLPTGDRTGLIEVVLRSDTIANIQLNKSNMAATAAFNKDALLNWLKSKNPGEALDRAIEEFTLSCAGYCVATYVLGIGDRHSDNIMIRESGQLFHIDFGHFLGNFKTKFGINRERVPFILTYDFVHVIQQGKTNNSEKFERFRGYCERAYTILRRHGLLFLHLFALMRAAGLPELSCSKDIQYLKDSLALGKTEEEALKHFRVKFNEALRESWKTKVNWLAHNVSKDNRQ
Chain of PI3K-δ (PI3K(p1108/p857) (h)) (P27986 whole entry partner, the tested form may be a part): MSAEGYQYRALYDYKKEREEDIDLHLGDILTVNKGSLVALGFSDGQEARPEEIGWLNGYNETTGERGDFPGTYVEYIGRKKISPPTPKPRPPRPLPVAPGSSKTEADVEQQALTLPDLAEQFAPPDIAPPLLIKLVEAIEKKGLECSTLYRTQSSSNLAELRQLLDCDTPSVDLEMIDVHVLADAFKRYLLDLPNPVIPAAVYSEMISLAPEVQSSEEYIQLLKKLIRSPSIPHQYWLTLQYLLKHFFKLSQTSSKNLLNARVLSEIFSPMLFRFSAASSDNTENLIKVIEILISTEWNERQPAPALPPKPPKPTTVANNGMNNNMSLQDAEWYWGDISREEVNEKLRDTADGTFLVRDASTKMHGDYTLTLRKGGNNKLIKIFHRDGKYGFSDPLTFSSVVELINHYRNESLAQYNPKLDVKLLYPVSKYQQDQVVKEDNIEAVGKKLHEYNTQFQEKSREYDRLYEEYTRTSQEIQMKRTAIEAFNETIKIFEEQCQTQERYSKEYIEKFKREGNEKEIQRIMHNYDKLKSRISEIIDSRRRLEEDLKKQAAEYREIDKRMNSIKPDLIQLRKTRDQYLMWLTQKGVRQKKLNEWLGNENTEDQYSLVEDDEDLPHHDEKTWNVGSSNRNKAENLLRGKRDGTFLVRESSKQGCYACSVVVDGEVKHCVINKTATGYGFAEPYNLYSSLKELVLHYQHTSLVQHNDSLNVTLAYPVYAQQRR

For the compound `C[C@H](Nc1ncnc2[nH]ccc(=O)c12)c1c(Cl)c2cccc(NCCc3ccc(Cl)cc3)c2c(=O)n1-c1ccccc1` [Example 335, (S)-4-((1-(4-chloro-8-((4-chlorophenethyl)amino)-1-oxo-2-phenyl-1,2-dihydroisoquinolin-3-yl)ethyl)amino)pyrido[2,3-d]pyrimidin-5(8H)-one], in experiment [1], the inhibition – broadly, the change of the read-out against control, counted positive when it falls – at 0.01 µM was found to be 31% and the inhibition at 0.1 µM came out at 95%. In addition, at DNA-PK(h), the inhibition at 0.01 µM stood at 13% and the inhibition at 0.1 µM was determined as 52%.

In the case of `C[C@H](Nc1ncnc2[nH]ccc(=O)c12)c1c(Cl)c2cccc(N3CCC(c4ccccc4)CC3)c2c(=O)n1-c1ccccc1` [Example 336, (S)-4-((1-(4-chloro-1-oxo-2-phenyl-8-(4-phenylpiperidin-1-yl)-1,2-dihydroisoquinolin-3-yl)ethyl)amino)pyrido[2,3-d]pyrimidin-5(8H)-one], in experiment [1], the inhibition at 0.01 µM turned out to be 6% and the inhibition at 0.1 µM came to 19%. Also, on DNA-PK(h), the inhibition at 0.01 µM was found to be 7% and the inhibition at 0.1 µM was found to be 14%.

As to `C[C@H](Nc1ncnc2[nH]ccc(=O)c12)c1c(Cl)c2cccc(N3CCC[C@H]3C(N)=O)c2c(=O)n1-c1ccccc1` [Example 337, (S)-1-(4-chloro-1-oxo-3-((S)-1-((5-oxo-5,8-dihydropyrido[2,3-d]pyrimidin-4-yl)amino)ethyl)-2-phenyl-1,2-dihydroisoquinolin-8-yl) pyrrolidine-2-carboxamide], in experiment [1], the inhibition at 0.01 µM is 27% and the inhibition at 0.1 µM was 70%. For the same compound, on DNA-PK(h), the inhibition at 0.01 µM was 13% and the inhibition at 0.1 µM worked out at 63%.

`C[C@H](Nc1ncnc2[nH]ccc(=O)c12)c1c(Cl)c2cccc(N3CCC[C@H]3CN3CCCC3)c2c(=O)n1-c1ccccc1` [Example 338, 4-(((S)-1-(4-chloro-1-oxo-2-phenyl-8-((S)-2-(pyrrolidin-1-ylmethyl)pyrrolidin-1-yl)-1,2-dihydroisoquinolin-3-yl)ethyl)amino)pyrido[2,3-d]pyrimidin-5(8H)-one]: in experiment [1], the inhibition at 0.01 µM was 3% and the inhibition at 0.1 µM worked out at 19%. Besides, at DNA-PK(h), the inhibition at 0.01 µM is -2% and the inhibition at 0.1 µM amounted to 35%.

Turning to `C[C@H](Nc1ncnc2[nH]ccc(=O)c12)c1c(Cl)c2cccc(N3CCCC3O)c2c(=O)n1-c1ccccc1` (stereo partly drawn) [Example 339, 4-(((1S)-1-(4-chloro-8-(2-hydroxypyrrolidin-1-yl)-1-oxo-2-phenyl-1,2-dihydroisoquinolin-3-yl)ethyl)amino)pyrido[2,3-d]pyrimidin-5(8H)-one], the inhibition at 0.01 µM in experiment [1] came out at 69%; on DNA-PK(h) it was 8%. Besides, the inhibition at 0.1 µM was determined as 20% in experiment [1] and 52% at DNA-PK(h).

In the case of `C[C@H](Nc1ncnc2[nH]ccc(=O)c12)c1c(Cl)c2cccc(N3Cc4ccccc4C3)c2c(=O)n1-c1ccccc1` [Example 340, (S)-4-((1-(4-chloro-8-(isoindolin-2-yl)-1-oxo-2-phenyl-1,2-dihydroisoquinolin-3-yl)ethyl)amino)pyrido[2,3-d]pyrimidin-5(8H)-one], in experiment [1], the inhibition at 0.01 µM came to 43% and the inhibition at 0.1 µM was determined as 91%. On DNA-PK(h), the inhibition at 0.01 µM amounted to 21% and the inhibition at 0.1 µM was found to be 67%.

Take `C[C@H](Nc1ncnc2[nH]ccc(=O)c12)c1c(Cl)c2cccc(N3CCc4ccccc43)c2c(=O)n1-c1ccccc1` [Example 341, (S)-4-((1-(4-chloro-8-(indolin-1-yl)-1-oxo-2-phenyl-1,2-dihydroisoquinolin-3-yl)ethyl)amino)pyrido[2,3-d]pyrimidin-5(8H)-one]: in experiment [1], the inhibition at 0.01 µM is 62% and the inhibition at 0.1 µM came to 91%. Moreover, at DNA-PK(h), the inhibition at 0.01 µM stood at 13% and the inhibition at 0.1 µM came to 56%.

For `C[C@H](Nc1ncnc2[nH]ccc(=O)c12)c1c(Cl)c2cccc(N3CC4CCCC4C3)c2c(=O)n1-c1ccccc1` (stereo partly drawn) [Example 342, 4-(((1S)-1-(4-chloro-8-(hexahydrocyclopenta[c]pyrrol-2 (1H)-yl)-1-oxo-2-phenyl-1,2-dihydroisoquinolin-3-yl)ethyl)amino)pyrido[2,3-d]pyrimidin-5(8H)-one], in experiment [1], the inhibition at 0.01 µM turned out to be 15% and the inhibition at 0.1 µM came to 45%. At DNA-PK(h), the inhibition at 0.01 µM was determined as 9% and the inhibition at 0.1 µM came to 58%.

As for `C[C@H](Nc1ncnc2[nH]ccc(=O)c12)c1c(Cl)c2cccc(Nc3ccccc3)c2c(=O)n1-c1ccccc1` [Example 343, (S)-4-((1-(4-chloro-1-oxo-2-phenyl-8-(phenylamino)-1,2-dihydroisoquinolin-3-yl)ethyl)amino)pyrido[2,3-d]pyrimidin-5(8H)-one], the inhibition at 0.01 µM is 8% in experiment [1] and -1% at DNA-PK(h).

Consider `C[C@H](Nc1ncnc2[nH]ccc(=O)c12)c1c(Cl)c2cccc(Nc3ccc(F)cc3)c2c(=O)n1-c1ccccc1` [Example 344, (S)-4-((1-(4-chloro-8-((4-fluorophenyl)amino)-1-oxo-2-phenyl-1,2-dihydroisoquinolin-3-yl)ethyl)amino)pyrido[2,3-d]pyrimidin-5(8H)-one], for which the inhibition at 0.01 µM in experiment [1] was 13%; at DNA-PK(h) it was -7%.

`COc1ccc(Nc2cccc3c(Cl)c([C@H](C)Nc4ncnc5[nH]ccc(=O)c45)n(-c4ccccc4)c(=O)c23)cc1` [Example 345, (S)-4-((1-(4-chloro-8-((4-methoxyphenyl)amino)-1-oxo-2-phenyl-1,2-dihydroisoquinolin-3-yl)ethyl)amino)pyrido[2,3-d]pyrimidin-5(8H)-one]: the inhibition at 0.01 µM in experiment [1] came out at 10%; on DNA-PK(h), 0%.

As for `C[C@H](Nc1ncnc2[nH]ccc(=O)c12)c1c(Cl)c2cccc(Nc3ccc(C(F)(F)F)cc3)c2c(=O)n1-c1ccccc1` [Example 346, (S)-4-((1-(4-chloro-1-oxo-2-phenyl-8-((4-(trifluoromethyl)phenyl)amino)-1,2-dihydroisoquinolin-3-yl)ethyl)amino)pyrido[2,3-d]pyrimidin-5(8H)-one], the inhibition at 0.01 µM in experiment [1] came out at 9%; on DNA-PK(h), 1%.

For `C[C@H](Nc1ncnc2[nH]ccc(=O)c12)c1c(Cl)c2cccc(Nc3cccnc3)c2c(=O)n1-c1ccccc1` [Example 347, (S)-4-((1-(4-chloro-1-oxo-2-phenyl-8-(pyridin-3-ylamino)-1,2-dihydroisoquinolin-3-yl)ethyl)amino)pyrido[2,3-d]pyrimidin-5(8H)-one], the results for the inhibition at 0.01 µM (in experiment [1]; on DNA-PK(h)) were 11% and 28%, respectively.

As to `C[C@H](Nc1ncnc2[nH]ccc(=O)c12)c1c(Cl)c2cccc(Nc3ccccn3)c2c(=O)n1-c1ccccc1` [Example 348, (S)-4-((1-(4-chloro-1-oxo-2-phenyl-8-(pyridin-2-ylamino)-1,2-dihydroisoquinolin-3-yl)ethyl)amino)pyrido[2,3-d]pyrimidin-5(8H)-one], the values for the inhibition at 0.01 µM (in experiment [1]; on DNA-PK(h)) were 5% and -1%, respectively.

Regarding `C[C@H](Nc1ncnc2[nH]ccc(=O)c12)c1c(Cl)c2cccc(N(C)c3ccccn3)c2c(=O)n1-c1ccccc1` [Example 349, (S)-4-((1-(4-chloro-8-(methyl(pyridin-2-yl)amino)-1-oxo-2-phenyl-1,2-dihydroisoquinolin-3-yl)ethyl)amino)pyrido[2,3-d]pyrimidin-5(8H)-one], the inhibition at 0.01 µM turned out to be 72% in experiment [1] and 15% on DNA-PK(h).

For the compound `C[C@H](Nc1ncnc2[nH]ccc(=O)c12)c1c(Cl)c2cccc(/C(N)=N/O)c2c(=O)n1-c1ccccc1` [Example 350, (S,Z)-4-chloro-N′-hydroxy-1-oxo-3-(1-((5-oxo-5,8-dihydropyrido[2,3-d]pyrimidin-4-yl)amino)ethyl)-2-phenyl-1,2-dihydroisoquinoline-8-carboximidamide], in experiment [1], the inhibition at 0.01 µM was 109% and the inhibition at 0.1 µM came out at 117%. Besides, on DNA-PK(h), the inhibition at 0.01 µM amounted to 15% and the inhibition at 0.1 µM was 55%.

Turning to `C[C@H](Nc1ncnc2[nH]ccc(=O)c12)c1c(Cl)c2cccc(-c3ncon3)c2c(=O)n1-c1ccccc1` [Example 351, (S)-4-((1-(4-chloro-8-(1,2,4-oxadiazol-3-yl)-1-oxo-2-phenyl-1,2-dihydroisoquinolin-3-yl)ethyl)amino)pyrido[2,3-d]pyrimidin-5(8H)-one], in experiment [1], the inhibition at 0.01 µM stood at 50% and the inhibition at 0.1 µM came out at 91%. Besides, on DNA-PK(h), the inhibition at 0.01 µM stood at 45% and the inhibition at 0.1 µM was 89%.

Turning to `C[C@H](Nc1ncnc2[nH]ccc(=O)c12)c1c(Cl)c2cccc(-c3nnn[nH]3)c2c(=O)n1-c1ccccc1` [Example 352, (S)-4-((1-(4-chloro-1-oxo-2-phenyl-8-(1H-tetrazol-5-yl)-1,2-dihydroisoquinolin-3-yl)ethyl)amino)pyrido[2,3-d]pyrimidin-5(8H)-one], in experiment [1], the inhibition at 0.01 µM came out at 27% and the inhibition at 0.1 µM stood at 75%. Moreover, on DNA-PK(h), the inhibition at 0.01 µM came out at 34% and the inhibition at 0.1 µM was 76%.

With `C[C@H](Nc1ncnc2[nH]ccc(=O)c12)c1c(Cl)c2cccc(B(O)O)c2c(=O)n1-c1ccccc1` [Example 353, (S)-(4-chloro-1-oxo-3-(1-((5-oxo-5,8-dihydropyrido[2,3-d]pyrimidin-4-yl)amino)ethyl)-2-phenyl-1,2-dihydroisoquinolin-8-yl)boronic acid], the values for the inhibition at 0.01 µM (in experiment [1]; on DNA-PK(h)) were 84% and 19%, respectively. In addition, the results for the inhibition at 0.1 µM (in experiment [1]; at DNA-PK(h)) were 94% and 62%, respectively.
